Measurements as given in ChEMBL document CHEMBL1151632, “15-Deacetylsergeolide, a potent antileukemic quassinoid from Picrolemma pseudocoffea” (1984).

Columns and labels:
P388 [1] = test: In vivo cytotoxicity against mouse P388 cells at 1.25 mg/kg relative to control; type: functional
P388 [2] = test: In vivo cytotoxicity against mouse P388 cells at 0.63 mg/kg relative to control; type: functional

| SMILES | T/C (P388 [1]) [%] | T/C (P388 [2]) [%] |
| --- | --- | --- |
| COC(=O)[C@]12OC[C@]34[C@H]([C@@H](O)[C@@H]1O)[C@@]1(C)C=C5OC(=O)C=C5[C@@H](C)[C@@H]1C[C@H]3OC(=O)[C@H](OC(C)=O)[C@@H]24 [SERGEOLIDE] | 169 |  |
| COC(=O)[C@]12OC[C@]34[C@H]([C@@H](O)[C@@H]1O)[C@@]1(C)C=C5OC(=O)C=C5[C@@H](C)[C@@H]1C[C@H]3OC(=O)[C@H](O)[C@@H]24 [DEACETYLSERGEOLIDE] |  | 150 |
